Data published in patent US7030246B2, “Tetrahydroquinoline derivatives as stat6-modulators, preparation and use thereof” (Astrazeneca AB, priority 2001, dated 2006).

tested on: STAT6 signaling pathway; test: Inhibition of STAT6-driven reporter gene activity (IL-4 induced luciferase in transfected U937 cells); type: cell-based; conditions: U-937; U937 cells stably transfected with IL-4 responsive luciferase reporter; 10 ng/ml recombinant human IL-4, 4–5 h; compound added 5 min before IL-4; read-out: IC50 (concentration of compound giving 50 percent inhibition of the luciferase response to addition of IL-4)
Text: The ability of the compounds described herein to inhibit STAT6 signaling pathway is manifested in their ability to inhibit STAT6 driven reporter gene activity.
The cytokine-responsive human cell line U937 were transfected with a reporter gene plasmid consisting of an interluekin 4 (IL-4) responsive promoter driving the heterologous firefly gene for luciferase. The reporter gene plasmid also contained a gene for neomycin resistance. The IL-4 responsive promoter were constructed by four oligomerized combined C/BEPβ and STAT6 binding sites with the nucleotide sequence […] in close contact with a TATA-box. Cells with a stable integration of the reporter gene plasmid were selected by cultivation in neomycin. Such transfected cells were used for IL-4 induction by adding 10 ng/ml recombinant human IL-4 to 0.5–1×10^6 cells per ml. IL-4 induction were carried out for 4–5 h. Thereafter the cells were lysed and luciferase activity determined by using standard techniques. Numbers measured are the mean fold induction (fold induction for U937 is defined as the luciferase response in an IL-4 treated U937 cell sample divided by the luciferase response in an untreated U937 cell sample). Typically, IL-4 stimulation gave 15–20 fold induction of the luciferase response. Compounds were added 5 min before IL-4 when tested in the reporter gene assay. Compound effect was expressed as the concentration of compound giving 50 percent inhibition (IC50) of the luciferase response to addition of IL-4.

Compound | IC50 [nM]
CC(=O)N1c2ccccc2[C@H](Nc2ccc(C)cc2)C[C@@H]1C (relative stereo) [No 27 Table I, (2S*,4R*)-1-Acetyl-2-methyl-N-(4-methylphenyl)-1,2,3,4-tetrahydro-4-quinolinamine] | 800
CC(=O)N1c2ccccc2[C@H](Nc2ccc(C#N)cc2)C[C@@H]1C (relative stereo) [No 36 Table I, 4-{[(2S*,4R*)-1-acetyl-2-methyl-1,2,3,4-tetrahydro-4-quinolinyl]amino}benzonitrile] | 430
CC(=O)N1c2ccc(I)cc2[C@H](Nc2ccccc2)C[C@@H]1C (relative stereo) [No 74 Table I, (2S*,4R*)-1-Acetyl-1,2,3,4-tetrahydro-6-iodo-2-methyl-N-phenyl-4-quinolinamine] | 180
